US8969516B2, “Method of hydrolysis of peptide bond” (priority 2006, dated 2015)

Test: MALDI-TOF screening of Ni^2+ dependent hydrolysis in a combinatorial peptide library
Type: physicochemical
Settings: CH3CO-Gly-Ala-Thr-X-His-Z-Lys-Phe-Leu-NH2 library, Ni^2+ 2 mM, pH 8.2, 10 mM Tris, score=24/tm
Method in brief: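 Sublibraries of Ac-Gly-Ala-Ser/Thr-X-His-Z-Lys-Phe-Leu-NH2, randomized at Z and fixed at X, were hydrolyzed at 1 mM total peptide with 2 mM Ni2+ in 10 mM Tris, pH 8.2, at 37 °C or 45 °C. Cleavage was scored visually in MALDI-TOF spectra at 2, 4, 6 and 8 h.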

Substance | hydrolysis score from MALDI-TOF screening (37° C.) | hydrolysis score from MALDI-TOF screening (45° C.)
Ac-GATHHNKFL-NH2 [THHN] | 0 (a score of 0 if no trace of the product of hydrolysis was seen after 8 hours of incubation) | 0 (a score of 0 if no trace of the product of hydrolysis was seen after 8 hours of incubation)
Ac-GATHHPKFL-NH2 [THHP] | 0 (a score of 0 if no trace of the product of hydrolysis was seen after 8 hours of incubation) | 0 (a score of 0 if no trace of the product of hydrolysis was seen after 8 hours of incubation)
Ac-GATHHRKFL-NH2 [THHR] | 6 (a score of 6 for detection at 4 hours) | 6 (a score of 6 for detection at 4 hours)
Ac-GATHHSKFL-NH2 [THHS] | 0 (a score of 0 if no trace of the product of hydrolysis was seen after 8 hours of incubation) | 4 (a score of 4 for detection at 6 hours)
Ac-GATHHTKFL-NH2 [THHT] | 0 (a score of 0 if no trace of the product of hydrolysis was seen after 8 hours of incubation) | 4 (a score of 4 for detection at 6 hours)
Ac-GATHHVKFL-NH2 [THHV] | 0 (a score of 0 if no trace of the product of hydrolysis was seen after 8 hours of incubation) | 6 (a score of 6 for detection at 4 hours)
Ac-GATHHWKFL-NH2 [THHW] | 12 (a score of 12, if it was seen to be partially hydrolysed at 2 hours) | 12 (a score of 12, if it was seen to be partially hydrolysed at 2 hours)
Ac-GATHHYKFL-NH2 [THHY] | 0 (a score of 0 if no trace of the product of hydrolysis was seen after 8 hours of incubation) | 6 (a score of 6 for detection at 4 hours)
Ac-GATIHAKFL-NH2 [TIHA] | 0 (a score of 0 if no trace of the product of hydrolysis was seen after 8 hours of incubation) | 0 (a score of 0 if no trace of the product of hydrolysis was seen after 8 hours of incubation)
Ac-GATIHDKFL-NH2 [TIHD] | 0 (a score of 0 if no trace of the product of hydrolysis was seen after 8 hours of incubation) | 0 (a score of 0 if no trace of the product of hydrolysis was seen after 8 hours of incubation)
Ac-GATIHFKFL-NH2 [TIHF] | 0 (a score of 0 if no trace of the product of hydrolysis was seen after 8 hours of incubation) | 0 (a score of 0 if no trace of the product of hydrolysis was seen after 8 hours of incubation)
Ac-GATIHGKFL-NH2 [TIHG] | 0 (a score of 0 if no trace of the product of hydrolysis was seen after 8 hours of incubation) | 0 (a score of 0 if no trace of the product of hydrolysis was seen after 8 hours of incubation)
Ac-GATIHHKFL-NH2 [TIHH] | 0 (a score of 0 if no trace of the product of hydrolysis was seen after 8 hours of incubation) | 0 (a score of 0 if no trace of the product of hydrolysis was seen after 8 hours of incubation)
Ac-GATIHIKFL-NH2 [TIHI] | 0 (a score of 0 if no trace of the product of hydrolysis was seen after 8 hours of incubation) | 0 (a score of 0 if no trace of the product of hydrolysis was seen after 8 hours of incubation)
Ac-GATIHKKFL-NH2 [TIHK] | 0 (a score of 0 if no trace of the product of hydrolysis was seen after 8 hours of incubation) | 3 (a score of 3 for detection at 8 hours)
Ac-GATIHLKFL-NH2 [TIHL] | 0 (a score of 0 if no trace of the product of hydrolysis was seen after 8 hours of incubation) | 0 (a score of 0 if no trace of the product of hydrolysis was seen after 8 hours of incubation)
Ac-GATIHNKFL-NH2 [TIHN] | 0 (a score of 0 if no trace of the product of hydrolysis was seen after 8 hours of incubation) | 0 (a score of 0 if no trace of the product of hydrolysis was seen after 8 hours of incubation)
Ac-GATIHPKFL-NH2 [TIHP] | 0 (a score of 0 if no trace of the product of hydrolysis was seen after 8 hours of incubation) | 0 (a score of 0 if no trace of the product of hydrolysis was seen after 8 hours of incubation)
Ac-GATIHQKFL-NH2 [TIHQ] | 0 (a score of 0 if no trace of the product of hydrolysis was seen after 8 hours of incubation) | 0 (a score of 0 if no trace of the product of hydrolysis was seen after 8 hours of incubation)
Ac-GATIHRKFL-NH2 [TIHR] | 0 (a score of 0 if no trace of the product of hydrolysis was seen after 8 hours of incubation) | 3 (a score of 3 for detection at 8 hours)

Substance | hydrolysis score from MALDI-TOF screening (37° C.) | hydrolysis score from MALDI-TOF screening (45° C.)
Ac-GATIHSKFL-NH2 [TIHS] | 0 (a score of 0 if no trace of the product of hydrolysis was seen after 8 hours of incubation) | 0 (a score of 0 if no trace of the product of hydrolysis was seen after 8 hours of incubation)
Ac-GATIHTKFL-NH2 [TIHT] | 0 (a score of 0 if no trace of the product of hydrolysis was seen after 8 hours of incubation) | 0 (a score of 0 if no trace of the product of hydrolysis was seen after 8 hours of incubation)
Ac-GATIHWKFL-NH2 [TIHW] | 3 (a score of 3 for detection at 8 hours) | 3 (a score of 3 for detection at 8 hours)
Ac-GATIHYKFL-NH2 [TIHY] | 0 (a score of 0 if no trace of the product of hydrolysis was seen after 8 hours of incubation) | 0 (a score of 0 if no trace of the product of hydrolysis was seen after 8 hours of incubation)
Ac-GATKHAKFL-NH2 [TKHA] | 0 (a score of 0 if no trace of the product of hydrolysis was seen after 8 hours of incubation) | 3 (a score of 3 for detection at 8 hours)
Ac-GATKHDKFL-NH2 [TKHD] | 0 (a score of 0 if no trace of the product of hydrolysis was seen after 8 hours of incubation) | 0 (a score of 0 if no trace of the product of hydrolysis was seen after 8 hours of incubation)
Ac-GATKHEKFL-NH2 [TKHE] | 0 (a score of 0 if no trace of the product of hydrolysis was seen after 8 hours of incubation) | 0 (a score of 0 if no trace of the product of hydrolysis was seen after 8 hours of incubation)
Ac-GATKHFKFL-NH2 [TKHF] | 3 (a score of 3 for detection at 8 hours) | 6 (a score of 6 for detection at 4 hours)
Ac-GATKHGKFL-NH2 [TKHG] | 0 (a score of 0 if no trace of the product of hydrolysis was seen after 8 hours of incubation) | 0 (a score of 0 if no trace of the product of hydrolysis was seen after 8 hours of incubation)
Ac-GATKHHKFL-NH2 [TKHH] | 0 (a score of 0 if no trace of the product of hydrolysis was seen after 8 hours of incubation) | 4 (a score of 4 for detection at 6 hours)
Ac-GATKHIKFL-NH2 [TKHI] | 4 (a score of 4 for detection at 6 hours) | 12 (a score of 12, if it was seen to be partially hydrolysed at 2 hours)
Ac-GATKHKKFL-NH2 [TKHK] | 3 (a score of 3 for detection at 8 hours) | 12 (a score of 12, if it was seen to be partially hydrolysed at 2 hours)
Ac-GATKHLKFL-NH2 [TKHL] | 4 (a score of 4 for detection at 6 hours) | 12 (a score of 12, if it was seen to be partially hydrolysed at 2 hours)
Ac-GATKHMKFL-NH2 [TKHM] | 3 (a score of 3 for detection at 8 hours) | 4 (a score of 4 for detection at 6 hours)
Ac-GATKHNKFL-NH2 [TKHN] | 0 (a score of 0 if no trace of the product of hydrolysis was seen after 8 hours of incubation) | 0 (a score of 0 if no trace of the product of hydrolysis was seen after 8 hours of incubation)
Ac-GATKHPKFL-NH2 [TKHP] | 0 (a score of 0 if no trace of the product of hydrolysis was seen after 8 hours of incubation) | 0 (a score of 0 if no trace of the product of hydrolysis was seen after 8 hours of incubation)
Ac-GATKHQKFL-NH2 [TKHQ] | 0 (a score of 0 if no trace of the product of hydrolysis was seen after 8 hours of incubation) | 0 (a score of 0 if no trace of the product of hydrolysis was seen after 8 hours of incubation)
Ac-GATKHRKFL-NH2 [TKHR] | 4 (a score of 4 for detection at 6 hours) | 12 (a score of 12, if it was seen to be partially hydrolysed at 2 hours)
Ac-GATKHSKFL-NH2 [TKHS] | 0 (a score of 0 if no trace of the product of hydrolysis was seen after 8 hours of incubation) | 0 (a score of 0 if no trace of the product of hydrolysis was seen after 8 hours of incubation)
Ac-GATKHTKFL-NH2 [TKHT] | 0 (a score of 0 if no trace of the product of hydrolysis was seen after 8 hours of incubation) | 0 (a score of 0 if no trace of the product of hydrolysis was seen after 8 hours of incubation)
